From US20120100990A1, “4 -AMINOPICOLINATES AND THEIR USE AS HERBICIDES” (SYNGENTA CROP PROTECTION LLC, priority 2009, published 2012)

Columns and labels:
Format in all cases: in vivo
[1] = test system: Alopecurus myosuroides (ALOMY); assay: Pre-emergence biological efficacy, glasshouse pot test; details: 312 h, 1,000 g/ha, evaluated after 13 days, 100=total damage, 0=no damage, read-out: Percentage damage caused to weed species, pre-emergence, ALOMY
Outline: (§1)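 Seeds were sown in standard soil, held one day in a glasshouse (24/16 °C day/night, 14 h light, 65% humidity), then sprayed pre-emergence with compound formulated in acetone/water (50:50) with 0.5% Tween 20 at 1000 or 250 g/ha. Plants were watered twice daily, and damage was scored after 13 days (0 = none, 100 = total).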

[2] = test system: Amaranthus retroflexus (AMARE); assay: as above; details: 312 h, 1,000 g/ha, evaluated after 13 days, 100=total damage, 0=no damage, read-out: Percentage damage caused to weed species, pre-emergence, AMARE
Outline: as §1

[3] = test system: Echinochloa crus-galli (ECHCG); assay: as above; details: 312 h, 1,000 g/ha, evaluated after 13 days, 100=total damage, 0=no damage, read-out: Percentage damage caused to weed species, pre-emergence, ECHCG
Outline: as §1

[4] = test system: Ipomea hederaceae (IPOHE); assay: as above; details: Ipomoea hederacea, 312 h, 1,000 g/ha, evaluated after 13 days, 100=total damage, 0=no damage, read-out: Percentage damage caused to weed species, pre-emergence, IPOHE
Outline: as §1

[5] = test system: Setaria faberi (SETFA); assay: as above; details: 312 h, 1,000 g/ha, evaluated after 13 days, 100=total damage, 0=no damage, read-out: Percentage damage caused to weed species, pre-emergence, SETFA
Outline: as §1

[6] = test system: Solanum nigrum (SOLNI); assay: as above; details: 312 h, 1,000 g/ha, evaluated after 13 days, 100=total damage, 0=no damage, read-out: Percentage damage caused to weed species, pre-emergence, SOLNI
Outline: as §1

[7] = test system: Alopecurus myosuroides (ALOMY); assay: Post-emergence biological efficacy, glasshouse pot test; details: 312 h, 1,000 g/ha, evaluated after 13 days, 100=total damage, 0=no damage, read-out: Percentage damage caused to weed species, post-emergence, ALOMY
Outline: (§2)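 Visual damage ratings (100 total kill, 0 no effect) were taken 13 days after spraying. Plants had been grown 8 days from seed before a single application of 1000 or 250 g/ha in aqueous acetone (50:50) containing 0.5% Tween 20.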

[8] = test system: Amaranthus retroflexus (AMARE); assay: as above; details: 312 h, 1,000 g/ha, evaluated after 13 days, 100=total damage, 0=no damage, read-out: Percentage damage caused to weed species, post-emergence, AMARE
Outline: as §2

[9] = test system: Echinochloa crus-galli (ECHCG); assay: as above; details: 312 h, 1,000 g/ha, evaluated after 13 days, 100=total damage, 0=no damage, read-out: Percentage damage caused to weed species, post-emergence, ECHCG
Outline: as §2

[10] = test system: Ipomea hederaceae (IPOHE); assay: as above; details: Ipomoea hederacea, 312 h, 1,000 g/ha, evaluated after 13 days, 100=total damage, 0=no damage, read-out: Percentage damage caused to weed species, post-emergence, IPOHE
Outline: as §2

[11] = test system: Setaria faberi (SETFA); assay: as above; details: 312 h, 1,000 g/ha, evaluated after 13 days, 100=total damage, 0=no damage, read-out: Percentage damage caused to weed species, post-emergence, SETFA
Outline: as §2

[12] = test system: Solanum nigrum (SOLNI); assay: as above; details: 312 h, 1,000 g/ha, evaluated after 13 days, 100=total damage, 0=no damage, read-out: Percentage damage caused to weed species, post-emergence, SOLNI
Outline: as §2

| SMILES | pest or weed control at 1000 g/ha [1] [%] | pest or weed control at 1000 g/ha [2] [%] | pest or weed control at 1000 g/ha [3] [%] | pest or weed control at 1000 g/ha [4] [%] | pest or weed control at 1000 g/ha [5] [%] | pest or weed control at 1000 g/ha [6] [%] | pest or weed control at 1000 g/ha [7] [%] | pest or weed control at 1000 g/ha [8] [%] | pest or weed control at 1000 g/ha [9] [%] | pest or weed control at 1000 g/ha [10] [%] | pest or weed control at 1000 g/ha [11] [%] | pest or weed control at 1000 g/ha [12] [%] |
| --- | --- | --- | --- | --- | --- | --- | --- | --- | --- | --- | --- | --- |
| COC(=O)c1nc(Cl)cc(NCC2CCCCC2)c1Cl [Compound 67-2, 4- Cyclohexylmethyl amino-3,6-dichloro-pyridine-2-carboxylic acid methyl ester] | 20 | 100 | 10 | 80 | 60 | 90 | 30 | 100 | 20 | 70 | 20 | 100 |
| C=Cc1c(NCC2CCCCC2)cc(Cl)nc1C(=O)OC [Compound 67-12, 6-Chloro-4-cyclohexylmeth-ylamino-3-ethenyl-pyridine-2-carboxylic acid methyl ester] | 10 | 100 | 10 | 60 | 0 | 80 | 10 | 90 | 20 | 60 | 20 | 80 |
| COC(=O)c1nc(Cl)cc(NC[C@@H]2CCCC[C@H]2O)c1Cl [Compound 68-2, 3,6-Dichloro-pyridine-4-[trans-(2-hydroxycyclohexyl-methyl)-amino]-2-carboxylic acid methyl ester] | 70 | 100 | 0 | 90 | 80 | 100 | 40 | 100 | 20 | 70 | 70 | 100 |
| COC(=O)c1nc(Cl)cc(NCC2CCCCCCC2)c1Cl [Compound 69-2, 4-Cyclooctylmethyl-amino-3,6-dichloro-pyridine-2-carboxylic acid methyl ester] | 20 | 90 | 10 | 80 | 10 | 100 | 10 | 100 | 0 | 70 | 0 | 90 |
| COC(=O)c1nc(Cl)cc(NCC2CCCO2)c1Cl (stereo not drawn) [Compound 70-2, 3,6-Dichloro-4-(tetrahydrofuran-2-ylmethylamino)-pyridine-2-carboxylic acid methyl ester] | 30 | 100 | 20 | 70 | 80 | 100 | 40 | 100 | 30 | 70 | 60 | 100 |
| CCN1CCCC1CNc1cc(Cl)nc(C(=O)OC)c1Cl (stereo not drawn) [Compound 71-2, 3,6-Dichloro-4-[(N-ethyl-pyrrolidin-2-ylmethyl)-amino]-pyridine-2-carboxylic acid methyl ester] | 70 | 100 | 20 | 100 | 80 | 100 | 20 | 100 | 20 | 60 | 50 | 100 |
| COC(=O)c1nc(Cl)cc(NCc2ccccc2Br)c1Cl [Compound 72-2, 4-[(2-Bromophenyl-methyl)-amino]-3,6-dichloro-pyridine-2-carboxylic acid methyl ester] | 30 | 90 | 10 | 80 | 30 | 100 | 20 | 100 | 10 | 70 | 70 | 100 |
| COC(=O)c1nc(Cl)cc(NCc2ccccc2OC)c1Cl [Compound 73-2, 3,6-Dichloro-4-[(2-methoxyphenyl-methyl)-amino]-pyridine-2-carboxylic acid methyl ester] | 50 | 100 | 20 | 100 | 80 | 100 | 40 | 100 | 40 | 70 | 80 | 90 |
| C=Cc1c(NCc2ccccc2OC)cc(Cl)nc1C(=O)OC [Compound 73-12, 6-Chloro-3-ethenyl-4-[(2-methoxyphenyl-methyl)-amino]-pyridine-2-carboxylic acid methyl ester] | 70 | 100 | 20 | 70 | 80 | 100 | 20 | 100 | 20 | 50 | 80 | 90 |
| COC(=O)c1nc(Cl)cc(NCc2ccccc2C(F)(F)F)c1Cl [Compound 74-2, 3,6-Dichloro-4-[(2-trifluoromethyl-phenylmethyl)-amino]-pyridine-2-carboxylic acid methyl ester] | 0 | 90 | 0 | 70 | 10 | 90 | 10 | 100 | 0 | 60 | 0 | 100 |
| C=Cc1c(NCc2ccccc2C(F)(F)F)cc(Cl)nc1C(=O)OC [Compound 74-12, 6-Chloro-3-ethenyl-4-[(2-trifluoromethyl-phenylmethyl)-amino]-pyridine-2-carboxylic acid methyl ester] | 0 | 0 | 0 | 0 | 0 | 0 | 10 | 100 | 20 | 10 | 10 | 70 |
